Assay [1] deals with S. uberis-infected murine mammary glands. The assay can be described thus: Mouse model of S. uberis mastitis: inflammatory protein profiling in mammary gland lysates. The format is in vivo. Conditions: 30 μg cloxacillin stand-alone. An excerpt:
(§1) All experimental procedures on mice were executed at the Faculty of Veterinary Medicine of Ghent University (Merelbeke, Belgium). Breeding pairs of female and male CD-1 mice (Envigo, The Netherlands) were allowed to mate during two weeks, after which the dams gave birth approximately seven days later. Twelve days postpartum, the lactating dams were intraductally inoculated with a blunted 32 gauge pediatric needle in the fourth inguinal mammary gland pair after properly disinfecting the teat. These intraductal inoculations were always performed under general gas anesthesia, using a mixture of medical oxygen and isoflurane at 2.5-3.0% for induction and 1.5-2.0% for maintenance. The long-acting analgesic buprenorphine was administered at 10 μg/kg intraperitoneally for post-surgical pain relief. An inoculum dose of approximately […] colony forming units (CFU) of a clinical bovine mastitis S. uberis isolate in 100 μl dPBS was intraductally inoculated at 1 h post-weaning and mice were grouped ad random at 12 h post-infection (p.i.) and placed under gas anesthesia a second time to administer intramammary treatment. […] The treated mice were sedated 16 h p.i. (i.e., 4 h post-treatment). The therapeutics were diluted in dPBS to their desired concentration, mixed by pipetting and kept on melting ice until they were administered intraductally within 1 h after preparation. Inoculum preparation was done by growing S. uberis to stationary phase in brain heart infusion (BHI), after which cells were washed with dPBS and diluted in dPBS to the desired concentration based on OD600 measurements.
The host response to the experimental mammary gland infection and subsequent therapy was investigated by determining the levels of inflammatory cytokines and chemokines in mammary gland lysates, obtained by mixing the homogenates with 300 μL caspase lysis buffer (CLB) containing protease inhibitors, and subsequent centrifugation (12,000 g; 4° C.; 20 min). Protein concentration of these lysates was determined using the Bradford protein assay. Standardization of the mammary gland lysates was done by dilution in CLB to assure equal protein concentrations. Levels of the selected inflammatory mediators TNF-α, MCP-1, M-& G-CSF as well as IL-1α, -1β, -6, & -8, were determined on mammary gland lysates using a ProcartaPlex Immunoassay. Quantification of CHI3L1 and LCN2 was performed by ELISA.

Assay [2] shares this test system. The assay is described as follows: Mouse model of S. uberis mastitis: Ly6G immunohistochemistry (neutrophil influx). To be noted: 30 μg cloxacillin stand-alone. The format is in vivo.
From the text: as §1, with “Inoculum preparation was done by growing S. uberis to stationary phase in brain heart infusion (BHI), after which cells were washed with dPBS and diluted in dPBS to the desired concentration based on OD600 measurements.” left out

Assay [3] shares this test system. The assay can be described thus: Mouse model of S. uberis mastitis: bacterial load and clinical symptoms. The format is in vivo. Conditions: 30 μg cloxacillin stand-alone.
From the text: as §1, with “Inoculum preparation was done by growing S. uberis to stationary phase in brain heart infusion (BHI), after which cells were washed with dPBS and diluted in dPBS to the desired concentration based on OD600 measurements.” left out

The subject of assay [4] is S. uberis in mastitic raw cow's milk. The assay is described as follows: Challenge of mastitic raw cow's milk. It is filed as cell-based, Streptococcus uberis. Conditions: milk of 4 cows, 8 h; 0.5 μM NC5, 50 μg/mL cloxacillin or both. The procedure: Raw cow's milk from S. uberis infected dairy cows was supplied by the milk control center of Flanders (MCC Vlaanderen). Upon arrival, the milk was serially diluted and plated on BHI agar to determine the bacterial load. Only milk with >10^5 […] CFU/mL S. uberis was included as a selection criterium. If needed, the raw milk was incubated during 8 h at 37° C. to artificially increase the initial bacterial load. […] Upon incubation at 37° C., every 2 h, 20 μL was transferred from each well to 180 μL dPBS, serially diluted and plated on BHI agar. Plates were incubated overnight and CFU/mL were calculated the next day. Undiluted, mastitic milk was always pipetted with ClipTip Pipette Tips (Westburg, The Netherlands) due to high viscosity. Mastitis isolates were confirmed as S. uberis by MALDI-TOF MS biotyping.

For `Cc1onc(-c2ccccc2Cl)c1C(=O)N[C@@H]1C(=O)N2[C@@H]1SC(C)(C)[C@@H]2C(=O)O` [cloxacillin], in assay [1], the “CHI3L1 reduction versus placebo” value worked out at 1.4 fold, the “IL-1α decrease versus placebo” value is 1.2 fold, the “IL-1β decrease versus placebo” value was found to be 1.3 fold and the “IL-6 decrease versus placebo” value worked out at 2.0 fold. In assay [1], the “LCN2 reduction versus placebo” value stood at 1.2 fold, the “MCP-1 reduction versus placebo” value stood at 1.5 fold, the “MIP-2 decrease versus placebo” value is on record as 1.6 fold and the “TNF-α decrease versus placebo” value came out at 1.4 fold. Further, in assay [2], the “reduced neutrophil influx (Ly6G-positive staining) versus placebo” value was 1.8 fold. Further, the “decrease in CFU numbers versus placebo” value in assay [3] was 630 fold. In assay [3] (intramammary, 4 h post-treatment, all mice), the “decrease of bacterial load versus placebo” value is 55 fold. Moreover, the “log10 reduction of S. uberis versus PBS control” value in assay [4] was “significant (p<0.05) reductions in all 4 mastitic milk samples at 8 h”.

Values taken from US20260275317A1, “CHIMERIC ENDOLYSINS WITH ACTIVITY AGAINST STREPTOCOCCI AND STAPHYLOCOCCI” (UNIVERSITEIT GENT, priority 2023, published 2026).
